Results: US9410158B2, “Genetically modified yeast species, and fermentation processes using genetically modified yeast” (Cargill Incorporated, priority 2003, dated 2016)

System: xylose isomerase enzyme (PXYLA)
Experiment: Inhibition of PXYLA activity in strain CD861 using xylitol (Ex. 8E)
Assay type: biochemical, Piromyces sp. E2
Description: Strain CD861 was grown in xylose media containing varying concentrations of xylitol, a known xylose isomerase inhibitor.

OC[C@@H](O)[C@H](O)[C@@H](O)CO [xylitol]
change of Km for the xylose isomerase enzyme (xylitol increased from 0 to 0.25 mM): doubled | change of Km for the xylose isomerase enzyme (xylitol increased to 0.50 mM): doubled again
